Here are results for 18 molecules from patent US8487102B2, “Pyrrazolopyridine compounds as dual NK1/NK3 receptor antagonists” (Hoffmann-La Roche Inc., priority 2010, dated 2013).

For experiment [1] the following is noted: phase II trial, cited from earlier work.
For experiment [2], the target named is T1, Recombinant human NK3 (hNK3) receptor (Homo sapiens, UniProt P29371).
T1 construct: expressed in transfected cells; membrane preparations of the recombinant receptor
T1 sequence (P29371 1-465): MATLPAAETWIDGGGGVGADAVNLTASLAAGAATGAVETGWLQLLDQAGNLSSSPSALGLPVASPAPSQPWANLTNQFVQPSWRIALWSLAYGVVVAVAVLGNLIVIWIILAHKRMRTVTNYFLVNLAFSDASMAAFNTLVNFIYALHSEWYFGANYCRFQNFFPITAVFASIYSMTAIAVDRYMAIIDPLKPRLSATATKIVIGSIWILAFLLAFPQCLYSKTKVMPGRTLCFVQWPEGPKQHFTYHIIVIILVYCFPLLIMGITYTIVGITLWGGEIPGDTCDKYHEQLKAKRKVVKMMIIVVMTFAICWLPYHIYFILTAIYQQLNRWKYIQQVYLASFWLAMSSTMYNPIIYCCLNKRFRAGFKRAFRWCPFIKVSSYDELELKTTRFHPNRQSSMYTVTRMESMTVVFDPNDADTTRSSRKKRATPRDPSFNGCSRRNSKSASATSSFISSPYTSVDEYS
Put plainly: NK3 receptor binding assay, [3H]SR142801 displacement. The conditions noted are these: hNK3 receptor membranes, [3H]SR142801 0.3 nM. The method, then:
Recombinant human NK3 (hNK3) receptor affinity was determined in a 96 well plate assay, using [^3H]SR142801 (final concentration 0.3 nM) to radiolabel the hNK3 receptor in the presence of 10 concentrations of competing compound or buffer. Non specific binding was determined using 10 μM SB222200. Assay buffer consisted of Tris-HCl (50 mM, pH 7.4), BSA (0.1%), MnCl2 (4 mM) and phosphoramidon (1 μM). Membrane preparations of hNK3 receptors (approximately 2.5 μg/well in a 96 well plate) were used to initiate the incubation for 90 min at room temperature. This assay was terminated by rapid filtration under vacuum through GF/C filters, presoaked for 90 min with PEI (0.3%), with 3×0.5 ml washes of ice-cold Tris buffer (50 mM, pH 7.4) containing 0.1% BSA. The radioactivity retained on the filters was measured by scintillation counting. All assays were performed in duplicate in at least two separate experiments.

The target in experiment [3] is T2, human NK1 receptor (Homo sapiens, UniProt P25103).
T2 construct: expressed in transfected cells; host or cells: CHO cells (Semliki virus expression system), membrane suspension
T2 sequence (P25103 whole entry): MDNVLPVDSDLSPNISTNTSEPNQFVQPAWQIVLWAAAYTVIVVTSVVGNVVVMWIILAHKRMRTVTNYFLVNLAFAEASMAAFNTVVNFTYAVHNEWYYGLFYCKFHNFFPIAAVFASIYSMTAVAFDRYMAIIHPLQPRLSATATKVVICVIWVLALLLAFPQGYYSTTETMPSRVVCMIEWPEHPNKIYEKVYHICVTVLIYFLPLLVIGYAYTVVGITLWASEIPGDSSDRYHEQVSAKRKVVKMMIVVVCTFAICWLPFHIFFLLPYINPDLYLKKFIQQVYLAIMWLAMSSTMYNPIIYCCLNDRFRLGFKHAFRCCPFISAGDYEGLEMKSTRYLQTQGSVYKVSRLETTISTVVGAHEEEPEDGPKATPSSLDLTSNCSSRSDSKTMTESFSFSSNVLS
As to the kind of experiment: NK1 receptor binding assay, [3H]substance P displacement. The conditions noted are these: human NK1 receptors in CHO cells, [3H]substance P 0.6 nM.

Turning to `CC(=O)N(C)C1(c2ccccc2)CCN(CCC[C@]2(c3ccc(Cl)c(Cl)c3)CCCN(C(=O)c3ccccc3)C2)CC1` [SR 142,801, Osanetant], in experiment [1] (altered behaviour, delusion, hallucinations, extreme emotions, excited motor activity, incoherent speech), the “activity on positive symptoms of schizophrenia” value is on record as “active”. The “activity in the treatment of negative symptoms of schizophrenia” value in experiment [1] (depression, anhedonia, social isolation or memory and attention deficits) is “inactive”.

Usually Ki stands for a measure of affinity in units of concentration, obtained from inhibition or displacement. With `CCn1ncc2c(-c3cscc3C)c(N(C)C(=O)C(C)(C)c3cc(C(F)(F)F)cc(C(F)(F)F)c3)cnc21` [Example 21, 2-(3,5-Bis-trifluoromethyl-phenyl)-N-[1-ethyl-4-(4-methyl-thiophen-3-yl)-1H-pyrazolo[3,4-b]pyridin-5-yl]-N-methyl-isobutyramide], the Ki in experiment [2] was 1.2 nM; in experiment [3] it was 92 nM.

`Cc1cc(F)ccc1-c1c(N(C)C(=O)C(C)(C)c2cc(C(F)(F)F)cc(C(F)(F)F)c2)cnc2c1cnn2C` [Example 7, 2-(3,5-Bis-trifluoromethyl-phenyl)-N-[4-(4-fluoro-2-methyl-phenyl)-1-methyl-1H-pyrazolo[3,4-b]pyridin-5-yl]-N-methyl-isobutyramide]: the Ki in experiment [2] was 18.9 nM; in experiment [3], 0.8 nM.

Turning to `CCn1ncc2c(-c3cc(CO)ccc3Cl)c(N(C)C(=O)C(C)(C)c3cc(C(F)(F)F)cc(C(F)(F)F)c3)cnc21` [Example 22, 2-(3,5-Bis-trifluoromethyl-phenyl)-N-[4-(2-chloro-5-hydroxymethyl-phenyl)-1-ethyl-1H-pyrazolo[3,4-b]pyridin-5-yl]-N-methyl-isobutyramide], the Ki in experiment [2] worked out at 4.8 nM; in experiment [3], 2.5 nM.

Take `CCn1ncc2c(-c3ccc(F)cc3C)c(NC(=O)C(C)(C)c3cc(C(F)(F)F)cc(C(F)(F)F)c3)cnc21` [Example 5, 2-(3,5-Bis-trifluoromethyl-phenyl)-N-[1-ethyl-4-(4-fluoro-2-methyl-phenyl)-1H-pyrazolo[3,4-b]pyridin-5-yl]-isobutyramide]: the figures for the Ki in experiment [2] and in experiment [3] were 200 nM and 6 nM, respectively.

In the case of `Cc1cc(F)ccc1-c1c(N(C)C(=O)C(C)(C)c2cc(C(F)(F)F)cc(C(F)(F)F)c2)cnc2c1cnn2S(C)(=O)=O` [Example 36, 2-(3,5-Bis-trifluoromethyl-phenyl)-N-[4-(4-fluoro-2-methyl-phenyl)-1-methanesulfonyl-1H-pyrazolo[3,4-b]pyridin-5-yl]-N-methyl-isobutyramide], the Ki was 15.1 nM in experiment [2] and 0.6 nM in experiment [3].

In the case of `Cc1cc(F)ccc1-c1c(N(C)C(=O)C(C)(C)c2cc(C(F)(F)F)cc(C(F)(F)F)c2)cnc2c1cnn2Cc1ccccc1` [Example 11, N-[1-Benzyl-4-(4-fluoro-2-methyl-phenyl)-1H-pyrazolo[3,4-b]pyridin-5-yl]-2-(3,5-bis-trifluoromethyl-phenyl)-N-methyl-isobutyramide], the Ki in experiment [2] came to 77 nM; in experiment [3], 1.3 nM.

In the case of `CCn1ncc2c(-c3ccccc3)c(N(C)C(=O)C(C)(C)c3cc(C(F)(F)F)cc(C(F)(F)F)c3)cnc21` [Example 10, 2-(3,5-Bis-trifluoromethyl-phenyl)-N-(1-ethyl-4-phenyl-1H-pyrazolo[3,4-b]pyridin-5-yl)-N-methyl-isobutyramide], the values for the Ki in experiment [2] and in experiment [3] were 532 nM and 2.5 nM, respectively.

As for `Cc1cc(F)ccc1-c1c(N(C)C(=O)C(C)(C)c2cc(C(F)(F)F)cc(C(F)(F)F)c2)cnc2c1cnn2CC(F)F` [Example 6, 2-(3,5-Bis-trifluoromethyl-phenyl)-N-[1-(2,2-difluoro-ethyl)-4-(4-fluoro-2-methyl-phenyl)-1H-pyrazolo[3,4-b]pyridin-5-yl]-N-methyl-isobutyramide], the Ki in experiment [2] is 6.8 nM; in experiment [3] it was 0.9 nM.

With `CCn1ncc2c(-c3cccc(F)c3F)c(N(C)C(=O)C(C)(C)c3cc(C(F)(F)F)cc(C(F)(F)F)c3)cnc21` [Example 9, 22-(3,5-Bis-trifluoromethyl-phenyl)-N-[4-(2,3-difluoro-phenyl)-1-ethyl-1H-pyrazolo[3,4-b]pyridin-5-yl]-N-methyl-isobutyramide], the Ki in experiment [2] turned out to be 779 nM; in experiment [3] it was 10.2 nM.

For `Cc1cc(F)ccc1-c1c(N(C)C(=O)C(C)(C)c2cc(C(F)(F)F)cc(C(F)(F)F)c2)cnc2c1cnn2S(=O)(=O)N(C)C` [Example 37, 2-(3,5-Bis-trifluoromethyl-phenyl)-N-[1-dimethylsulfamoyl-4-(4-fluoro-2-methyl-phenyl)-1H-pyrazolo[3,4-b]pyridin-5-yl]-N-methyl-isobutyramide], the Ki in experiment [2] was found to be 78.5 nM; in experiment [3], 7.5 nM.

On to `CCn1ncc2c(-c3ccc(F)cc3C)c(N(C)C(=O)C(C)(C)c3cc(Cl)cc(Cl)c3)cnc21` [Example 27, 2-(3,5-Dichloro-phenyl)-N-[1-ethyl-4-(4-fluoro-2-methyl-phenyl)-1H-pyrazolo[3,4-b]pyridin-5-yl]-N-methyl-isobutyramide], for which the Ki was found to be 35.1 nM in experiment [2] and 2.6 nM in experiment [3].

Take `CCn1ncc2c(-c3cc(F)ccc3C)c(N(C)C(=O)C(C)(C)c3cc(C(F)(F)F)cc(C(F)(F)F)c3)cnc21` [Example 13, 2-(3,5-Bis-trifluoromethyl-phenyl)-N-[1-ethyl-4-(5-fluoro-2-methyl-phenyl)-1H-pyrazolo[3,4-b]pyridin-5-yl]-N-methyl-isobutyramide]: the results for the Ki in experiment [2] and in experiment [3] were 160 nM and 7.9 nM, respectively.

Turning to `CCn1ncc2c(-c3ccc(F)cc3C)c(N(C)C(=O)C(C)(C)c3cccc(Cl)c3)cnc21` [Example 29, 2-(3-Chloro-phenyl)-N-[1-ethyl-4-(4-fluoro-2-methyl-phenyl)-1H-pyrazolo[3,4-b]pyridin-5-yl]-N-methyl-isobutyramide], the results for the Ki in experiment [2] and in experiment [3] were 308 nM and 34.5 nM, respectively.

Turning to `Cc1cc(F)ccc1-c1c(N(C)C(=O)C(C)(C)c2cc(C(F)(F)F)cc(C(F)(F)F)c2)cnc2c1cnn2CS(C)(=O)=O` [Example 38, 2-(3,5-Bis-trifluoromethyl-phenyl)-N-[4-(4-fluoro-2-methyl-phenyl)-1-methanesulfonylmethyl-1H-pyrazolo[3,4-b]pyridin-5-yl]-N-methyl-isobutyramide], the Ki is 8 nM in experiment [2] and 1.1 nM in experiment [3].

`COCC(=O)n1ncc2c(-c3ccc(F)cc3C)c(N(C)C(=O)C(C)(C)c3cc(C(F)(F)F)cc(C(F)(F)F)c3)cnc21` [Example 32, 2-(3,5-Bis-trifluoromethyl-phenyl)-N-[4-(4-fluoro-2-methyl-phenyl)-1-(2-methoxy-acetyl)-1H-pyrazolo[3,4-b]pyridin-5-yl]-N-methyl-isobutyramide]: the Ki was 28.4 nM in experiment [2] and 1.9 nM in experiment [3].

`CCn1ncc2c(-c3cccc(F)c3Cl)c(N(C)C(=O)C(C)(C)c3cc(C(F)(F)F)cc(C(F)(F)F)c3)cnc21` [Example 14, 2-(3,5-Bis-trifluoromethyl-phenyl)-N-[4-(2-chloro-3-fluoro-phenyl)-1-ethyl-1H-pyrazolo[3,4-b]pyridin-5-yl]-N-methyl-isobutyramide]: the values for the Ki in experiment [2] and in experiment [3] were 38.7 nM and 1.6 nM, respectively.

Take `CCn1ncc2c(-c3ccc(Cl)c(Cl)c3)c(N(C)C(=O)C(C)(C)c3cc(C(F)(F)F)cc(C(F)(F)F)c3)cnc21` [Example 4, 2-(3,5-Bis-trifluoromethyl-phenyl)-N-[4-(3,4-dichloro-phenyl)-1-ethyl-1H-pyrazolo[3,4-b]pyridin-5-yl]-N-methyl-isobutyramide]: the Ki turned out to be 86.8 nM in experiment [2] and 0.4 nM in experiment [3].
